Results from US12692262B2, “Substituted ureas as orexin receptor agonists” (Merck Sharp & Dohme LLC, priority 2020, dated 2026).

Target: T1, human OX2R (Homo sapiens, UniProt O43614)
T1 construct: expressed in transfected cells; host or cells: CHO (Chinese hamster ovary) cells grown under G418 selection
T1 sequence (O43614 1-444): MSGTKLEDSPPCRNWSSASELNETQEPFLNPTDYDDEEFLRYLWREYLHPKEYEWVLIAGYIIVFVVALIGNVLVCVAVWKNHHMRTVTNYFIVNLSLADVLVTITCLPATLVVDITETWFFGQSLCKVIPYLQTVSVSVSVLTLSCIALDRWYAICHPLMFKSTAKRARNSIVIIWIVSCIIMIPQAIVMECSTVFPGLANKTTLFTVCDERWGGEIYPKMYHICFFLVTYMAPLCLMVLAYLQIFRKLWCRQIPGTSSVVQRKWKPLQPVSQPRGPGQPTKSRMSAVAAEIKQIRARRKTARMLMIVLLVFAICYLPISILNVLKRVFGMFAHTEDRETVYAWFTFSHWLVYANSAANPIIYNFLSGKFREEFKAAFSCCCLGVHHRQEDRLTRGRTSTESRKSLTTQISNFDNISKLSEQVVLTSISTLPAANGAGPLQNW
Assay: IPOne (IP-1 accumulation) assay in CHO cells expressing human OX2R
Type: cell-based
Settings: for EC50: CHO cells expressing human OX2R, IP-One assay, 2 h incubation, four parameter logistic fit, read-out: OX2R Potency, EC50; for % of maximum agonist effect (relative to Orexin A): percent effect vs mean max effect of a reference compound at 1 uM (100% activity vs Orexin A), human OX2R
Summary of the method: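 Agonist EC50 values come from the inflection point of four-parameter logistic curves. Read-out is IP-1 accumulation detected with lysis buffer plus D2 and AB-cryptate reagents (HTRF), in CHO cells engineered to express human OX2R.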

Row | Structure (SMILES) | EC50 | % of maximum agonist effect (relative to Orexin A) | % of maximum agonist effect (relative to Orexin A) (1 µM)
1 | CCOC1(CC(NC(=O)N(CC)[C@H](C)c2cccc(-c3cn4ccnc4c(OC)n3)c2)C(F)(F)F)CC1 (stereo partly drawn) [Example 2-57, 3-(3-(1-ethoxycyclopropyl)-1,1,1-trifluoropropan-2-yl)-1-ethyl-1-((R)-1-(3-(8-methoxyimidazo[1,2-a]pyrazin-6-yl)phenyl)ethyl)urea] | 15.3 nM | 96.2% | 
2 | CCCC(C#N)NC(=O)N(CC)[C@H](C)c1cccc(-c2cn3ccnc3c(OC)n2)c1 (stereo partly drawn) [Example 2-37, 3-(1-cyanobutyl)-1-ethyl-1-((R)-1-(3-(8-methoxyimidazo[1,2-a]pyrazin-6-yl)phenyl)ethyl)urea] | 20 nM | 100.8% | 
3 | CCN(C(=O)N[C@@H](CCC(F)(F)F)C(F)(F)F)[C@@H](c1cc(-c2cc(F)c3ncnn3c2)c(OC)cn1)C(F)(F)F [Example 9-10, 1-ethyl-3-((S)-1,1,1,5,5,5-hexafluoropentan-2-yl)-1-((S)-2,2,2-trifluoro-1-(4-(8-fluoro-[1,2,4]triazolo[1,5-a]pyridin-6-yl)-5-methoxypyridin-2-yl)ethyl)urea] | 608 nM | 97.1% | 
4 | CCC(CCC(F)(F)F)NC(=O)N(CC)[C@H](C)c1cccc(-c2cnc3nccn3c2)c1 (stereo partly drawn) [Example 8-7, 1-ethyl-1-((R)-1-(3-(imidazo[1,2-a]pyrimidin-6-yl)phenyl)ethyl)-3-(6,6,6-trifluorohexan-3-yl)urea] | 180 nM | 99.3% | 
5 | CCc1cc(-c2cc([C@@H](C)N(CC)C(=O)N[C@@H](CCC(F)(F)F)C(F)(F)F)ncc2OC)cc2ccnn12 [Example 9-5, 1-ethyl-1-((R)-1-(4-(7-ethylpyrazolo[1,5-a]pyridin-5-yl)-5-methoxypyridin-2-yl)ethyl)-3-((S)-1,1,1,5,5,5-hexafluoropentan-2-yl)urea] | 16.3 nM | 99.6% | 
6 | CC[C@H](CCC(F)(F)F)NC(=O)N(C(C)C)[C@H](C)c1cccc(-c2cn3ccnc3c(OC)n2)c1 [Example 2-60, 1-isopropyl-1-((R)-1-(3-(8-methoxyimidazo[1,2-a]pyrazin-6-yl)phenyl)ethyl)-3-((R)-6,6,6-trifluorohexan-3-yl)urea] | 64.4 nM | 97.4% | 
7 | CCN(C(=O)NC(Cn1ccnn1)C(F)(F)F)[C@H](C)c1cccc(-c2cn3ccnc3c(OC)n2)c1 (stereo partly drawn) [Example 1-17, 1-ethyl-1-((R)-1-(3-(8-methoxyimidazo[1,2-a]pyrazin-6-yl)phenyl)ethyl)-3-(1,1,1-trifluoro-3-(1H-1,2,3-triazol-1-yl)propan-2-yl)urea] | 10.5 nM | 98.7% | 
8 | CCN(C(=O)N[C@@H](CCC(F)(F)F)C(F)(F)F)C(c1cc(-c2cc(OC)c3nccn3n2)c(OC)cn1)C(F)(F)F (stereo partly drawn) [Example 10-10, 1-ethyl-3-((S)-1,1,1,5,5,5-hexafluoropentan-2-yl)-1-(2,2,2-trifluoro-1-(5-methoxy-4-(8-methoxyimidazo[1,2-b]pyridazin-6-yl)pyridin-2-yl)ethyl)urea] | 4.7 nM | 100.8% | 
9 | CCN(C(=O)N[C@@H](CCC(F)(F)F)C(F)(F)F)[C@@H](c1cc(-c2cn3cc(C)nc3c(OC)n2)c(OC)cn1)C(F)(F)F [Example 10-9, 1-ethyl-3-((S)-1,1,1,5,5,5-hexafluoropentan-2-yl)-1-((S)-2,2,2-trifluoro-1-(5-methoxy-4-(8-methoxy-2-methylimidazo[1,2-a]pyrazin-6-yl)pyridin-2-yl)ethyl)urea] | 2.7 nM | 102.5% | 
10 | CCN(C(=O)N[C@@H](C(C)(C)C)C(F)(F)F)[C@@H](c1cc(-c2cn3ccnc3c(OC)n2)c(OC)cn1)C(F)(F)F [Example 2-28, 1-ethyl-1-((S)-2,2,2-trifluoro-1-(5-methoxy-4-(8-methoxyimidazo[1,2-a]pyrazin-6-yl)pyridin-2-yl)ethyl)-3-((S)-1,1,1-trifluoro-3,3-dimethylbutan-2-yl)urea] | 16.1 nM | 99.1% | 
11 | CCN(C(=O)N[C@@H](CCC(F)(F)F)C1CC1)[C@H](C)c1cnc(OC)c(-c2cn3ccnc3c(OC)n2)c1 [Example 12-2, 3-((S)-1-cyclopropyl-4,4,4-trifluorobutyl)-1-ethyl-1-((R)-1-(6-methoxy-5-(8-methoxyimidazo[1,2-a]pyrazin-6-yl)pyridin-3-yl)ethyl)urea] | 1.2 nM | 100.6% | 
12 | CCNC(=O)N(CC)[C@H](C)c1cccc(-c2cc(OC)c3nccn3c2)c1 [Example 2-68, (R)-1,3-diethyl-1-(1-(3-(8-methoxyimidazo[1,2-a]pyridin-6-yl)phenyl)ethyl)urea] | 179 nM | 83.3% | 
13 | CCN(C(=O)N[C@@H](C1CCCC(F)(F)C1)C(F)(F)F)[C@H](C)c1cccc(-c2cn3ccnc3c(OC)n2)c1 (single isomer, unassigned) [Example 3-1] | 0.9 nM | 100.8% | 
14 | CC[C@H](CCC(F)(F)F)NC(=O)N(C)[C@H](C)c1cccc(-c2cn3ccnc3c(OC)n2)c1 [Example 2-58, 1-((R)-1-(3-(8-methoxyimidazo[1,2-a]pyrazin-6-yl)phenyl)ethyl)-1-methyl-3-((R)-6,6,6-trifluorohexan-3-yl)urea] | 17.8 nM | 100.0% | 
15 | CC[C@H](CCC(F)F)NC(=O)N(CC)[C@@H](c1cc(-c2cn3cc(C)nc3c(OC)n2)c(OC)cn1)C(F)(F)F [Example 6-1, 3-((R)-6,6-difluorohexan-3-yl)-1-ethyl-1-((S)-2,2,2-trifluoro-1-(5-methoxy-4-(8-methoxy-2-methylimidazo[1,2-a]pyrazin-6-yl)pyridin-2-yl)ethyl)urea] | 22.6 nM | 101.0% | 
16 | CCN(C(=O)N[C@@H](C=C(C)C)C(F)(F)F)[C@H](C)c1cccc(-c2cn3ccnc3c(OC)n2)c1 [Example 5-2, 1-ethyl-1-((R)-1-(3-(8-methoxyimidazo[1,2-a]pyrazin-6-yl)phenyl)ethyl)-3-((S)-1,1,1-trifluoro-4-methylpent-3-en-2-yl)urea] |  |  | 99.1%
17 | CCN(C(=O)NC(CCCF)C1CC1)[C@@H](c1cc(-c2cn3cc(C)nc3c(OC)n2)c(OC)cn1)C(F)(F)F (stereo partly drawn) [Example 6-4, 3-(1-cyclopropyl-4-fluorobutyl)-1-ethyl-1-((S)-2,2,2-trifluoro-1-(5-methoxy-4-(8-methoxy-2-methylimidazo[1,2-a]pyrazin-6-yl)pyridin-2-yl)ethyl)urea] | 16 nM | 100.3% | 
18 | CCN(C(=O)N[C@@H](CCC(F)(F)F)C(F)(F)F)C(C)c1ccnc(-c2cn3ccnc3c(OC)n2)n1 (stereo partly drawn) [Example 2-63, 1-ethyl-3-((S)-1,1,1,5,5,5-hexafluoropentan-2-yl)-1-(1-(2-(8-methoxyimidazo[1,2-a]pyrazin-6-yl)pyrimidin-4-yl)ethyl)urea] | 1060 nM | 96.2% | 
19 | CCN(C(=O)N[C@@H](CCCF)C(F)(F)F)[C@@H](c1cc(-c2cn3cc(C)nc3c(OC)n2)c(OC)cn1)C(F)(F)F [Example 3-2, 1-ethyl-3-((S)-1,1,1,5-tetrafluoropentan-2-yl)-1-((S)-2,2,2-trifluoro-1-(5-methoxy-4-(8-methoxy-2-methylimidazo[1,2-a]pyrazin-6-yl)pyridin-2-yl)ethyl)urea] | 3.3 nM | 102.4% | 
20 | CCC(CC(C)C(F)(F)F)NC(=O)N(CC)[C@H](C)c1cccc(-c2cn3ccnc3c(OC)n2)c1 (stereo partly drawn) [Example 2-3, 1-ethyl-1-((R)-1-(3-(8-methoxyimidazo[1,2-a]pyrazin-6-yl)phenyl)ethyl)-3-(6,6,6-trifluoro-5-methylhexan-3-yl)urea] | 4.6 nM | 100.6% | 
21 | CCN(C(=O)NC(CCC(F)(F)F)COC)[C@@H](c1cc(-c2cn3cc(C)nc3c(OC)n2)c(OC)cn1)C(F)(F)F (stereo partly drawn) [Example 2-49, 1-ethyl-1-((S)-2,2,2-trifluoro-1-(5-methoxy-4-(8-methoxy-2-methylimidazo[1,2-a]pyrazin-6-yl)pyridin-2-yl)ethyl)-3-(5,5,5-trifluoro-1-methoxypentan-2-yl)urea] | 99.4 nM | 100.1% | 
22 | CC[C@H](CCC(F)(F)F)NC(=O)N(CC)[C@H](C)c1ccc(Br)c(-c2ccc3nccn3c2)c1 [Example 11-3, 1-((R)-1-(4-bromo-3-(imidazo[1,2-a]pyridin-6-yl)phenyl)ethyl)-1-ethyl-3-((R)-6,6,6-trifluorohexan-3-yl)urea] | 129 nM | 91.8% | 
23 | CCN(C(=O)N[C@@H](CCC(F)(F)F)C(F)(F)F)[C@@H](c1cc(-c2cc(OC)c3nccn3c2)c(OC)cn1)C(F)(F)F [Example 9-1, 1-ethyl-3-((S)-1,1,1,5,5,5-hexafluoropentan-2-yl)-1-((S)-2,2,2-trifluoro-1-(5-methoxy-4-(8-methoxyimidazo[1,2-a]pyridin-6-yl)pyridin-2-yl)ethyl)urea] | 0.9 nM | 99.7% | 
